Where two headings read alike, the source gives them in different places.
Legend:
[1] = system: CDC1551(rv2390c′::GFP) reporter Mtb strain, response to high [Cl−]; test: microbe, parasite or virus in culture; type: cell-based, Mycobacterium tuberculosis; settings: Mycobacterium tuberculosis, 144 h; for activity at 20 µM: read-out: rv2390c'::GFP validation assay NPA% at 20 µM compound
[2] = system: CDC1551(rv1405c′::GFP) reporter Mtb strain; test: microbe, parasite or virus in culture; type: cell-based, Mycobacterium tuberculosis; settings: Mycobacterium tuberculosis; for activity at 10 µM: read-out: rv1405c'::GFP secondary assay NPA% at 10 µM compound; for activity at 20 µM: read-out: rv1405c'::GFP secondary assay NPA% at 20 µM compound
[3] = pH 6.4, […], DMSO positive control = 100%, read-out: Primary screen rv2390c'::GFP NPA%
[4] = 10 µM, pH 6.4, 250 mM NaCl, 6 days, read-out: rv2390c'::GFP validation assay NPA% at 10 µM compound

SMILES | activity at 10 µM [1, 3] [%] | activity at 10 µM [1, 4] [%] | activity at 20 µM ([1]; pH 6.4, 250 mM NaCl, 6 days) [%] | activity at 10 µM [2] [%] | activity at 20 µM [2] [%]
CC(CCc1ccccc1)Nc1ncnc(-n2cccn2)c1N (stereo not shown) [RU-0203332, CC(CCC1=CC=CC=C1)NC1=C(N)C(=NC=N1)N1C=CC=N1] | 151 | 100 ± 2.9 | 135 ± 16.1 | 117 ± 5.3 | 182 ± 8.5
OCC(CNc1nc(N2CCCC2)nc(N2CCCC2)n1)Cc1ccco1 (stereo not shown) [RU-0198952, OCC(CNC1=NC(=NC(=N1)N1CCCC1)N1CCCC1)CC1=CC=CO1] | 170 | 123 ± 7.8 | 194 ± 15.6 | 171 ± 12.8 | 380 ± 28.2
COc1ccc2c(c1)OCC(C(=O)C(C#N)c1nc3ccccc3o1)C2 (stereo not shown) [RU-0202553, COC1=CC2=C(CC(CO2)C(=O)C(C#N)C2=NC3=C(O2)C=CC=C3)C=C1] | 189 | 131 ± 13.6 | 249 ± 22.5 | 136 ± 12.3 | 402 ± 46.5
CC(C)Cc1cc(C(=O)N2CCOC(CCCc3ccccc3)C2)[nH]n1 (stereo not shown) [RU-0230474, CC(C)CC1=NNC(=C1)C(=O)N1CCOC(CCCC2=CC=CC=C2)C1] | 198 | 118 ± 12.7 | 229 ± 26.9 | 98.4 ± 7.5 | 172 ± 14.2
COc1ccc(Cl)cc1-c1cc(NC(=O)c2c(C)noc2C)[nH]n1 [RU-0210243, COC1=C(C=C(Cl)C=C1)C1=NNC(NC(=O)C2=C(C)ON=C2C)=C1] | 254 | 211 ± 11.6 | 357 ± 20 | 342.7 ± 3.1 | 737 ± 25.3
CCNC(=O)CSc1ccc2c3c(cccc13)C(=O)c1ccccc1-2 [RU-0209034, CCNC(=O)CSC1=C2C=CC=C3C(=O)C4=C(C=CC=C4)C(C=C1)=C23] | 182 | 128 ± 15.3 | 199 ± 7.5 | 183 ± 12.7 | 401 ± 7.5
Cc1nc(NS(=O)(=O)c2ccc(F)c(F)c2)n(-c2ccc(C#N)cc2)n1 [RU-0203361, CC1=NN(C(NS(=O)(=O)C2=CC(F)=C(F)C=C2)=N1)C1=CC=C(C=C1)C#N] | 152 | 121 ± 1.5 | 160 ± 15.7 | 119 ± 11.5 | 169 ± 13.4
CCOC(=O)c1nnc(NC(=O)c2cc(Cl)cc(Cl)c2)s1 [RU-0203287, CCOC(=O)C1=NN=C(NC(=O)C2=CC(Cl)=CC(Cl)=C2)S1] | 174 | 118 ± 12.5 | 138 ± 17 | 99 ± 5.3 | 111 ± 11.8
Cc1ccc2cc(S(=O)(=O)NCCn3nc(C)c(Cl)c3C)ccc2c1 [RU-0211306, CC1=NN(CCNS(=O)(=O)C2=CC3=C(C=C2)C=C(C)C=C3)C(C)=C1Cl] | 154 | 122 ± 3.2 | 156 ± 2.1 | 84.4 ± 8.8 | 99.4 ± 9.4
COc1ccc2c(CN3CCOCC(CN(C)C)C3)cn(C)c2c1 (stereo not shown) [RU-0260647, COC1=CC=C2C(CN3CCOCC(CN(C)C)C3)=CN(C)C2=C1] | 162 | 114 ± 3.2 | 130 ± 7.6 | 112 ± 2.5 | 130 ± 3.6
Cc1ccccc1OCC(=O)NCc1ccc(C)n1C [RU-0272839, CN1C(C)=CC=C1CNC(=O)COC1=C(C)C=CC=C1] | 215 | 161 ± 13.6 | 204 ± 5.5 | 93 ± 7.6 | 104 ± 5.9
Clc1cccc2ccc(CN3CCn4cncc4C3)nc12 [RU-0247165, ClC1=C2N=C(CN3CCN4C=NC=C4C3)C=CC2=CC=C1] | 219 | 132 ± 7.5 | 317 ± 6.7 | 226 ± 14.7 | 688.7 ± 3.5
Cn1cc(CCC(=O)Nc2ccc3c(c2)S(=O)(=O)C=C3)cn1 [RU-0278569, CN1C=C(CCC(=O)NC2=CC3=C(C=CS3(=O)=O)C=C2)C=N1] | 47.1 | 80.9 ± 7.4 | 63.4 ± 5.6 | 74.5 ± 5.4 | 76.5 ± 4.9
CCOc1cc(F)ccc1NC(=O)Nc1cccc(C#N)c1 [RU-0273629, CCOC1=C(NC(=O)NC2=CC(=CC=C2)C#N)C=CC(F)=C1] | 170 | 203 ± 16.4 | 318 ± 21.4 | 188 ± 18 | 540 ± 65.6
CCc1nc(C(C#N)C(=O)/C=C/c2ccc(NC(C)=O)cc2)sc1C (stereo not shown) [RU-0204780, CCC1=C(C)SC(=N1)C(C#N)C(=O)\C=C\C1=CC=C(NC(C)=O)C=C1] | 158 | 112 ± 8.5 | 140 ± 12.3 | 127 ± 5.5 | 206 ± 16
CC1(C)CC2CC(C)(CN2CC(O)COc2ccc(F)cc2Cl)C1 (stereo not shown) [RU-0218667, CC12CC(CC(C)(C)C1)N(CC(O)COC1=C(Cl)C=C(F)C=C1)C2] | 154 | 118 ± 1.5 | 173 ± 5.5 | 129 ± 4.5 | 233 ± 4.2
Cc1cc(C(C)C(=O)Nc2ccc(N3CCN(C)CC3)cn2)c(C)o1 (stereo not shown) [RU-0182922, CC(C(=O)NC1=NC=C(C=C1)N1CCN(C)CC1)C1=C(C)OC(C)=C1] | 174 | 139 ± 18.3 | 164 ± 13.6 | 96.9 ± 6.7 | 106 ± 5.2
CCOC(=O)N1C/C(=C/c2cccc(O)c2)C(=O)/C(=C/c2cccc(O)c2)C1 [RU-0202273, CCOC(=O)N1C\C(=C\C2=CC(O)=CC=C2)C(=O)\C(C1)=C\C1=CC(O)=CC=C1] | 154 | 113 ± 3.2 | 117 ± 11 | 84.5 ± 18.2 | 158 ± 19.3
CCCc1oncc1C(=O)NC1CC(=O)N(CCc2ccc(F)cc2)C1 (stereo not shown) [RU-0245406, CCCC1=C(C=NO1)C(=O)NC1CN(CCC2=CC=C(F)C=C2)C(=O)C1] | 172 | 126 ± 7.5 | 163 ± 6.6 | 87.7 ± 9 | 114 ± 25.7
Cc1cc(NS(=O)(=O)Cc2cccc(C(F)(F)F)c2)n(C)n1 [RU-0274447, CN1N=C(C)C=C1NS(=O)(=O)CC1=CC(=CC=C1)C(F)(F)F] | 186 | 171 ± 11.2 | 252 ± 10.1 | 303 ± 7.6 | 619 ± 9.2
CCOC(=O)C(C)Sc1nc2c(cnn2-c2ccccc2)c(=O)[nH]1 (stereo not shown) [RU-0212119, CCOC(=O)C(C)SC1=NC2=C(C=NN2C2=CC=CC=C2)C(=O)N1] | 34.7 | 48.1 ± 4.6 | 40.2 ± 4.8 | 33.4 ± 2.2 | 14.5 ± 3.4
CCCc1ccccc1NC(N)=S [RU-0214166, CCCC1=C(NC(N)=S)C=CC=C1] | 34.1 | 56.8 ± 5.8 | 31.6 ± 12.3 | 61.8 ± 0.5 | 111 ± 15.1
Cc1nc2nc(-c3cccs3)nn2c(O)c1C1CCS(=O)(=O)C1 (stereo not shown) [RU-0194400, CC1=NC2=NC(=NN2C(O)=C1C1CCS(=O)(=O)C1)C1=CC=CS1] | 7.1 | 9.1 ± 3.9 | 15 ± 5.3 | -2.1 ± 2.6 | 2.5 ± 7
OC1(c2ccccc2)CCN(Cc2cnc3c(-c4ccccc4)cnn3c2)CC1 [RU-0224846, OC1(CCN(CC2=CN3N=CC(=C3N=C2)C2=CC=CC=C2)CC1)C1=CC=CC=C1] | 153 | 118 ± 10.8 | 159 ± 15.9 | 101 ± 18 | 140 ± 37.5
NC(=O)c1cc2c(cc1-c1cccc(C(F)(F)F)c1)OCO2 [RU-0234167, NC(=O)C1=CC2=C(OCO2)C=C1C1=CC=CC(=C1)C(F)(F)F] | 343 | 221 ± 6.7 | 383 ± 10.4 | 201 ± 15 | 291 ± 18.7
C(=C\c1ccccc1)/Cn1nnc(-c2cccs2)n1 [RU-0207924, C(\C=C\C1=CC=CC=C1)N1N=NC(=N1)C1=CC=CS1] | 152 | 114 ± 1.5 | 137 ± 4 | 97.4 ± 8.8 | 125 ± 16.3

— paper PMC8351955, “Targeting Mycobacterium tuberculosis response to environmental cues for the development of effective antitubercular drugs” (PLoS Biology, 2021)
